# In patent US20230277504A1, “COMPOSITIONS AND METHODS COMPRISING CELECOXIB OR RELATED COMPOUNDS AND DEXTROMETHORPHAN” (ANTECIP BIOVENTURES II LLC, priority 2012, published 2023):
# Values joined by “and” are separate entries in the source; they are usually repeats but may differ in a detail not shown here. Identical values can stand only once. Like-named read-outs stand apart in the source and are kept apart here.
# Columns and labels:
# [1] = molecular target: T1, dextromethorphan metabolism (demethylation; CYP2D6) in human liver microsomes (Homo sapiens, UniProt P10635); assay: Inhibition of dextromethorphan metabolism in human liver microsomes; type: in vitro ADME
# T1 construct: in the presence of dextromethorphan (2.5 μM) and human liver microsomes (0.5 mg/mL) at 37° C; from tissue; host or cells: human liver microsomes
# Description: Inhibition of dextromethorphan metabolism was examined using human liver microsomes. […] In addition, the assay contained NADPH (2 mM), MgCl2 (3 mM), and potassium phosphate buffer (50 mM) at pH 7.4. The assay was initiated by adding the NADPH, and incubation was terminated after 10 minutes by addition of acetonitrile. The samples were centrifuged, and the metabolism of dextromethorphan was analyzed by LC/MS/MS. […] The same assay was carried out on a number of NSAIDs.
# pain = details: cited from earlier work
# [2] = extensive metabolizers of dextromethorphan; 'believed to be'; cited from earlier work
# T1 sequence (P10635 whole entry): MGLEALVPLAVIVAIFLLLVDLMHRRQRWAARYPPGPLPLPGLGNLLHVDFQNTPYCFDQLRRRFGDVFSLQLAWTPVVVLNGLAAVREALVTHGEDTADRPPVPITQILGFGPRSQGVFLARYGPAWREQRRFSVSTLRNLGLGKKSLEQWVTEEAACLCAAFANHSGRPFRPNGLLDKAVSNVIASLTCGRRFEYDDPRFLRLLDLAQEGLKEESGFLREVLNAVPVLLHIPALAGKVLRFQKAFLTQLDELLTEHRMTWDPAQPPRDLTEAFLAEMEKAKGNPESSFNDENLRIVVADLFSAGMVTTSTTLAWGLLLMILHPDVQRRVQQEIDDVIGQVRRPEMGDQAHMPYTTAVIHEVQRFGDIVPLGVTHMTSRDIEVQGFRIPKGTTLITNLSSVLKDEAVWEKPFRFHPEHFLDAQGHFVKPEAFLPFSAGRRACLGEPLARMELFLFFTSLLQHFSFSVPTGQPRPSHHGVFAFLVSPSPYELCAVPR
compound,measurement,setting,value
COc1ccc2cc(CC(=O)O)ccc2c1 [6-methoxy-2-naphthyl acetic acid],IC50,"[1]; human liver microsomes 0.5 mg/mL, dextromethorphan 2.5 μM, NADPH 2 mM, 37° C., pH 7.4, 10 minutes, LC/MS/MS, read-out: IC50 (inhibition of dextromethorphan metabolism)",> 1760 µM
Cc1ccc(-c2cc(C(F)(F)F)nn2-c2ccc(S(N)(=O)=O)cc2)cc1 [Celecoxib],IC50,[1],2.6 to 2.9 µM
same,times as active at inhibiting the metabolism of dextromethorphan as the next best compound,[1],about five
same,IC50,"[1]; IC50 (inhibition of dextromethorphan metabolism), human liver microsomes 0.5 mg/mL, dextromethorphan 2.5 μM, NADPH 2 mM, 37° C., pH 7.4, 10 minutes, LC/MS/MS",2.6 µM and 2.9 µM
same,times as active at inhibiting the metabolism of dextromethorphan as 6-methoxy-2-naphthyl acetic acid,"[1]; human, 10 min, pH 7.4",more than 500 times
CC(C(=O)O)c1ccc(-c2ccccc2)c(F)c1 (stereo not shown) [Flurbiprofen],IC50,[1],> 320 µM
CS(=O)(=O)c1ccc(C2=C(c3ccccc3)C(=O)OC2)cc1 [Rofecoxib],IC50,[1],44.5 µM
CC1=C(CC(=O)O)c2cc(F)ccc2/C1=C\c1ccc([S+](C)[O-])cc1 (stereo not shown) [Sulindac],IC50,[1],> 36 µM
Cc1onc(-c2ccccc2)c1-c1ccc(S(N)(=O)=O)cc1 [Valdecoxib],IC50,[1],15.2 µM
"COc1ccc2c(c1)[C@]13CCCC[C@@H]1[C@H](C2)N(C)CC3 [dextromethorphan, Dextromethorphan]",analgesic efficacy,"pain; double-blind human studies in chronic and neuropathic pain, review of Weinbroum et al.",ineffective for the most part
same,pain reduction versus placebo,"pain; patients with diabetic neuropathy and postherpetic neuralgia, Sang et al.",did not reduce pain significantly more than placebo
same,analgesic efficacy,"pain; patients with facial neuralgias, Gilron et al.",little or no analgesic efficacy
same,clearance,[2],about 110 L/min
